Source: ChEMBL document CHEMBL1201862, “PubChem BioAssay data set” (2004)
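Cultured in 96-well plates, cells were exposed to test compound for 48 hours across five concentrations. Abbreviation: GI50, concentration required for 50% inhibition of growth.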 The source made the active and inactive calls. Cut-off read from the data, not from the text of the source: active = GI50 up to about 1.1 µM and inactive = higher.

Legend:
Assay in all cases: NCI-60 cell line screen, 48 h
A498 = tested on: A498
ACHN = tested on: ACHN
BT-549 = tested on: BT-549
CAKI-1 = tested on: CAKI-1
CCRF-CEM = tested on: CCRF-CEM
COLO 205 = tested on: COLO 205
DU-145 = tested on: DU-145
EKVX = tested on: EKVX
HCC 2998 = tested on: HCC 2998
HCT-15 = tested on: HCT-15
HL-60 = tested on: HL-60
HOP-62 = tested on: HOP-62
HOP-92 = tested on: HOP-92
Hs-578T = tested on: Hs-578T
IGROV-1 = tested on: IGROV-1
K562 = tested on: K562
KM12 = tested on: KM12
LOX IMVI = tested on: LOX IMVI
MCF7 = tested on: MCF7
MDA-MB-231 = tested on: MDA-MB-231
MDA-MB-435 = tested on: MDA-MB-435
MOLT-4 = tested on: MOLT-4
Malme-3M = tested on: Malme-3M
NCI-H226 = tested on: NCI-H226
NCI-H23 = tested on: NCI-H23
NCI-H460 = tested on: NCI-H460
NCI-H522 = tested on: NCI-H522
NCI/ADR-RES = tested on: NCI/ADR-RES
OVCAR-3 = tested on: OVCAR-3
OVCAR-4 = tested on: OVCAR-4
OVCAR-5 = tested on: OVCAR-5
OVCAR-8 = tested on: OVCAR-8
PC-3 = tested on: PC-3
RPMI-8226 = tested on: RPMI-8226
RXF 393 = tested on: RXF 393
SF-295 = tested on: SF-295
SF-539 = tested on: SF-539
SK-MEL-28 = tested on: SK-MEL-28
SK-MEL-2 = tested on: SK-MEL-2
SK-MEL-5 = tested on: SK-MEL-5
SK-OV-3 = tested on: SK-OV-3
SNB-75 = tested on: SNB-75
SR = tested on: SR
SW-620 = tested on: SW-620
TK-10 = tested on: TK-10
U-251 = tested on: U-251
UACC-257 = tested on: UACC-257
UACC-62 = tested on: UACC-62
786-0 = tested on: 786-0
A549 = tested on: A549
HT-29 = tested on: HT-29
M14 = tested on: M14
SF-268 = tested on: SF-268
SN12C = tested on: SN12C
SNB-19 = tested on: SNB-19
UO-31 = tested on: UO-31
HCT-116 = tested on: HCT-116
T47D = tested on: T47D

`N=c1c2c(=S)n(-c3ccccc3)c(=S)n(-c3ccccc3)c2nc(SCCCN2CCN(c3cccc(Cl)c3)CC2)n1-c1ccccc1` was tested, and the GI50 (A498) was 50.7 µM (inactive), the GI50 (ACHN) was > 100 µM (inactive) and the GI50 (BT-549) was > 100 µM (inactive). For the same molecule, the GI50 (CAKI-1) was 84.3 µM (inactive), the GI50 (CCRF-CEM) was > 100 µM (inactive) and the GI50 (COLO 205) was > 100 µM (inactive). For the same molecule, the GI50 (DU-145) was 52.8 µM (inactive), the GI50 (EKVX) was > 100 µM (inactive) and the GI50 (HCC 2998) was > 100 µM (inactive). The GI50 (HCT-15) was 59.2 µM, the GI50 (HL-60) was > 100 µM (inactive) and the GI50 (HOP-62) was 44.7 µM (inactive). For the same molecule, the GI50 (HOP-92) was 42.3 µM (inactive), the GI50 (Hs-578T) was > 100 µM (inactive) and the GI50 (IGROV-1) was 97.7 µM (inactive). The GI50 (K562) was > 100 µM (inactive), the GI50 (KM12) was > 100 µM (inactive) and the GI50 (LOX IMVI) was 26.5 µM (inactive). For the same molecule, the GI50 (MCF7) was 53.2 µM (inactive), the GI50 (MDA-MB-231) was 22.8 µM (inactive) and the GI50 (MDA-MB-435) was 73.8 µM (inactive). The GI50 (MOLT-4) was > 100 µM (inactive), the GI50 (Malme-3M) was > 100 µM (inactive) and the GI50 (NCI-H226) was 98.6 µM (inactive). The GI50 (NCI-H23) was > 100 µM (inactive), the GI50 (NCI-H460) was > 100 µM (inactive) and the GI50 (NCI-H522) was > 100 µM (inactive). For the same molecule, the GI50 (NCI/ADR-RES) was > 100 µM (inactive), the GI50 (OVCAR-3) was > 100 µM (inactive) and the GI50 (OVCAR-4) was > 100 µM (inactive). The GI50 (OVCAR-5) was 26.4 µM (inactive), the GI50 (OVCAR-8) was > 100 µM (inactive) and the GI50 (PC-3) was 43.9 µM (inactive). The GI50 (RPMI-8226) was > 100 µM (inactive), the GI50 (RXF 393) was > 100 µM (inactive) and the GI50 (SF-295) was 45.4 µM (inactive). For the same molecule, the GI50 (SF-539) was > 100 µM (inactive), the GI50 (SK-MEL-28) was > 100 µM (inactive) and the GI50 (SK-MEL-2) was 62.8 µM (inactive). The GI50 (SK-MEL-5) was 92.7 µM (inactive), the GI50 (SK-OV-3) was > 100 µM (inactive) and the GI50 (SNB-75) was 78.5 µM (inactive). The GI50 (SR) was > 100 µM (inactive), the GI50 (SW-620) was > 100 µM (inactive) and the GI50 (TK-10) was 37.5 µM (inactive). For the same molecule, the GI50 (U-251) was > 100 µM (inactive), the GI50 (UACC-257) was > 100 µM (inactive) and the GI50 (UACC-62) was 49.2 µM (inactive).

In the case of `Clc1nc(Cl)c(Cl)c(-c2ccccc2)n1`, the GI50 (786-0) is reported as 2.21 µM (inactive), the GI50 (A549) is reported as 13.8 µM (inactive) and the GI50 (ACHN) is reported as 17.4 µM (inactive). For the same molecule, the GI50 (BT-549) was 2.41 µM (inactive), the GI50 (CCRF-CEM) was 0.74 µM (active) and the GI50 (EKVX) was 16.6 µM (inactive). For the same molecule, the GI50 (HCC 2998) was 22.2 µM (inactive), the GI50 (HCT-15) was 11.4 µM and the GI50 (HL-60) was > 100 µM (inactive). For the same molecule, the GI50 (HOP-62) was 4.03 µM (inactive), the GI50 (HT-29) was 1.68 µM (inactive) and the GI50 (Hs-578T) was 2.73 µM (inactive). The GI50 (IGROV-1) was 15.4 µM (inactive), the GI50 (K562) was 1.44 µM (inactive) and the GI50 (KM12) was 5.02 µM (inactive). The GI50 (LOX IMVI) was 1.86 µM (inactive), the GI50 (M14) was 1.77 µM (inactive) and the GI50 (MCF7) was 7.05 µM (inactive). For the same molecule, the GI50 (MDA-MB-435) was 14.6 µM (inactive), the GI50 (MOLT-4) was 1.58 µM (inactive) and the GI50 (Malme-3M) was 5.61 µM (inactive). For the same molecule, the GI50 (NCI-H226) was 24.3 µM (inactive), the GI50 (NCI-H23) was 15.8 µM (inactive) and the GI50 (NCI-H460) was 9.46 µM (inactive). The GI50 (NCI-H522) was 1.67 µM (inactive), the GI50 (NCI/ADR-RES) was 5.62 µM (inactive) and the GI50 (OVCAR-3) was 2.05 µM (inactive). The GI50 (OVCAR-4) was 4.85 µM (inactive), the GI50 (OVCAR-5) was 20.3 µM (inactive) and the GI50 (OVCAR-8) was 10.4 µM (inactive). For the same molecule, the GI50 (PC-3) was 10.5 µM (inactive), the GI50 (RPMI-8226) was 5.24 µM (inactive) and the GI50 (RXF 393) was 13.6 µM (inactive). The GI50 (SF-268) was 23.9 µM (inactive), the GI50 (SF-295) was 3.93 µM (inactive) and the GI50 (SF-539) was 11.8 µM (inactive). For the same molecule, the GI50 (SK-MEL-28) was 16 µM (inactive), the GI50 (SK-MEL-2) was 15.4 µM (inactive) and the GI50 (SK-MEL-5) was 2.43 µM (inactive). The GI50 (SK-OV-3) was 13.1 µM (inactive), the GI50 (SN12C) was 20 µM (inactive) and the GI50 (SNB-19) was 15.6 µM (inactive). For the same molecule, the GI50 (SNB-75) was 2.26 µM (inactive), the GI50 (SR) was 0.322 µM (active) and the GI50 (SW-620) was 1.94 µM (inactive). For the same molecule, the GI50 (TK-10) was 18.8 µM (inactive), the GI50 (U-251) was 15.1 µM (inactive) and the GI50 (UACC-257) was 20.5 µM (inactive). The GI50 (UO-31) was 18.1 µM (inactive).

With `CCN1CCC(C)OP1(=O)Cc1ccccc1` (centres undefined) the GI50 (786-0) was > 100 µM (inactive), the GI50 (A549) was > 100 µM (inactive) and the GI50 (ACHN) was > 100 µM (inactive). For the same molecule, the GI50 (BT-549) was > 100 µM (inactive), the GI50 (CAKI-1) was > 100 µM (inactive) and the GI50 (COLO 205) was > 100 µM (inactive). The GI50 (DU-145) was > 100 µM (inactive), the GI50 (EKVX) was > 100 µM (inactive) and the GI50 (HCC 2998) was > 100 µM (inactive). The GI50 (HCT-116) was > 100 µM (inactive), the GI50 (HCT-15) was > 100 µM and the GI50 (HOP-62) was > 100 µM (inactive). The GI50 (HT-29) was > 100 µM (inactive), the GI50 (IGROV-1) was > 100 µM (inactive) and the GI50 (K562) was > 100 µM (inactive). The GI50 (KM12) was > 100 µM (inactive), the GI50 (LOX IMVI) was > 100 µM (inactive) and the GI50 (M14) was > 100 µM (inactive). The GI50 (MCF7) was > 100 µM (inactive), the GI50 (MDA-MB-231) was > 100 µM (inactive) and the GI50 (MDA-MB-435) was > 100 µM (inactive). For the same molecule, the GI50 (Malme-3M) was > 100 µM (inactive), the GI50 (NCI-H226) was > 100 µM (inactive) and the GI50 (NCI-H23) was > 100 µM (inactive). For the same molecule, the GI50 (NCI-H460) was > 100 µM (inactive), the GI50 (NCI/ADR-RES) was > 100 µM (inactive) and the GI50 (OVCAR-3) was 46.5 µM (inactive). For the same molecule, the GI50 (OVCAR-4) was > 100 µM (inactive), the GI50 (OVCAR-5) was > 100 µM (inactive) and the GI50 (OVCAR-8) was > 100 µM (inactive). The GI50 (PC-3) was > 100 µM (inactive), the GI50 (RPMI-8226) was > 100 µM (inactive) and the GI50 (SF-268) was > 100 µM (inactive). For the same molecule, the GI50 (SF-295) was > 100 µM (inactive), the GI50 (SF-539) was > 100 µM (inactive) and the GI50 (SK-MEL-2) was > 100 µM (inactive). The GI50 (SK-MEL-5) was > 100 µM (inactive), the GI50 (SK-OV-3) was > 100 µM (inactive) and the GI50 (SNB-19) was > 100 µM (inactive). For the same molecule, the GI50 (SR) was > 100 µM (inactive), the GI50 (SW-620) was > 100 µM (inactive) and the GI50 (T47D) was > 100 µM (inactive). For the same molecule, the GI50 (TK-10) was > 100 µM (inactive), the GI50 (U-251) was > 100 µM (inactive) and the GI50 (UACC-257) was > 100 µM (inactive). The GI50 (UACC-62) was > 100 µM (inactive) and the GI50 (UO-31) was > 100 µM (inactive).
